According to the supplement of paper PMC10949913:

Legend:
Details in all cases: 48 h
[1] = tested on: NCI-H295R; assay: AC50 viability; higher = less potent
Method in brief: (§1)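 For each of three adrenocortical carcinoma cell lines, 500–1,000 cells/well were placed in 5 µL medium in 1,536-well plates. A 23 nL volume of every library compound was added at 11 concentrations. Following 48 h, a 15-minute room-temperature CellTiter-Glo step preceded luminescence reading, with signals normalised per plate to vehicle and empty-well controls. AC50 and area under the curve were derived by curve fitting, retaining only inhibitory or non-responding curve classes.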

[2] = tested on: CU-ACC2; assay: AC50 viability; higher = less potent
Method in brief: as §1

[3] = tested on: CU-ACC1; assay: AC50 viability; higher = less potent
Method in brief: as §1

[4] = tested on: NCI-H295R; assay: area under concentration-response curve (viability) (AUC (a.u.)); higher = less active
Method in brief: as §1

[5] = tested on: CU-ACC2; assay: as above
Method in brief: as §1

[6] = tested on: CU-ACC1; assay: as above
Method in brief: as §1

SMILES | AC50 viability [1] | AC50 viability [2] | AC50 viability [3] | area under concentration-response curve [4] | area under concentration-response curve [5] | area under concentration-response curve [6]
CC(C)CNc1ccnc(NCc2csc(-c3ccccc3)n2)n1 | 16.6 µM | 23.5 µM | 3.72 µM | 531 | 591 | 445
NC(=O)/C(=C/n1cnc(-c2cc(C(F)(F)F)cc(C(F)(F)F)c2)n1)c1cncnc1 | 9.34 µM | 5.9 µM | 11.8 µM | 438 | 459 | 322
C=CC(=O)Nc1cccc(Oc2nc(Nc3ccc(N4CCN(C)CC4)cc3)nc3ccsc23)c1 | 5.9 µM | 8.33 µM | 5.9 µM | 337 | 330 | 277
O=[N+]([O-])c1ccc(Nc2ccccc2-c2ccccc2)c2nonc12 | 8.33 µM | 8.33 µM | 9.34 µM | 434 | 467 | 426
C=CC(=O)Nc1ccc2ncnc(Nc3ccc(OCc4cccc(F)c4)c(Cl)c3)c2c1 | 10.5 µM | 10.5 µM | 20.9 µM | 510 | 534 | 334
C=C1C(=O)O[C@@H]2[C@H]3O[C@]3(C)CC/C=C(\C)CC[C@@H]12 | 9.34 µM | 7.42 µM | 14.8 µM | 497 | 522 | 375
COc1cc2nccc(Oc3ccc(NC(=O)Nc4cc(C)on4)c(Cl)c3)c2cc1OC | 14.8 µM | 29.5 µM | 14.8 µM | 415 | 516 | 422
COC(=O)[C@]12CCC(C)(C)C[C@H]1[C@H]3C(=O)\C=C\4[C@@](C)(CC[C@H]5C(C)(C)C(=O)\C(=C/[C@]45C)C#N)[C@]3(C)CC2 | 13.2 µM | 16.6 µM | 20.9 µM | 412 | 375 | 402
C=CCNC1=C2CC(C)CC(OC)C(O)C(C)/C=C(\C)C(OC(N)=O)C(OC)/C=C/C=C(\C)C(=O)NC(=CC1=O)C2=O (stereo not drawn) | 10.5 µM | 1.18 µM | 3.32 µM | 491 | 480 | 410
C[C@@]12C(=O)OC(=O)[C@]1(C)[C@H]1CC[C@@H]2O1 | 4.68 µM | 10.5 µM | 7.42 µM | 434 | 431 | 442
Cc1ccc2nc(NCCN)c3ncc(C)n3c2c1 | 14.8 µM | 10.5 µM | 14.8 µM | 423 | 369 | 413
COc1cc(C)c(Sc2cnc(NC(=O)c3ccc(CNC(C)C(C)(C)C)cc3)s2)cc1C(=O)N1CCN(C(C)=O)CC1 (stereo not drawn) | 9.34 µM | 16.6 µM | 18.6 µM | 354 | 443 | 440
C[C@@H](NCc1cc2ccccc2[nH]1)c1cccc2ccccc12 | 23.5 µM | 20.9 µM | 20.9 µM | 428 | 479 | 428
COc1ccc([S+](=O)([O-])N(CCO)c2ccccc2CN(C)C/C=C/c2ccc(Cl)cc2)cc1 | 20.9 µM | 23.5 µM | 14.8 µM | 425 | 539 | 436
CC/1=C(\O)C(=O)\C=C2/C1=C\C=C3/[C@@]2(C)CC[C@@]4(C)[C@@H]5C[C@@](C)(CC[C@]5(C)CC[C@]34C)C(O)=O | 23.5 µM | 6.61 µM | 13.2 µM | 447 | 515 | 474
Fc1ccc(C(OCCN2CCN(CCCc3ccccc3)CC2)c2ccc(F)cc2)cc1 | 14.8 µM | 18.6 µM | 16.6 µM | 423 | 490 | 471
c1cc(Nc2cc(C3CC3)n[nH]2)nc(Nc2ccc3nc[nH]c3c2)n1 | 7.42 µM | 0.332 µM | 1.05 µM | 462 | 408 | 419
O=C1NCCc2[nH]c(-c3ccncc3)cc21 | 4.68 µM | 1.86 µM | 3.32 µM | 423 | 406 | 338
CC(O)(C#Cc1ccc2c(c1)N(c1nc(N)ncc1Cl)CC2)c1nccs1 (stereo not drawn) | 16.6 µM | 18.6 µM | 14.8 µM | 507 | 560 | 494
Oc1ccc(-c2ccc(-c3cc(Nc4cccc(CNC5CC5)c4)[nH]n3)cc2)c(O)c1 | 18.6 µM | 10.5 µM | 14.8 µM | 531 | 556 | 498
COc1cc(C)c(Sc2cnc(NC(=O)c3ccc(CNC(C)C(C)C)cc3)s2)cc1C(=O)N1CCN(C(C)=O)CC1 (stereo not drawn) | 14.8 µM | 16.6 µM | 37.2 µM | 478 | 527 | 466
CC(N[C@H]1CCCC[C@@H]1NC(=O)c1ccc(Cl)cc1)c1cccc2ccccc12 (stereo partly drawn) | 18.6 µM | 23.5 µM | 33.2 µM | 422 | 550 | 432
COc1cccc2c1C(=O)c1c(O)c3c(c(O)c1C2=O)C[C@@](O)(C(=O)CO)C[C@@H]3O[C@H]1C[C@H](N)[C@@H](O)[C@H](C)O1 | 18.6 µM | 8.33 µM | 10.5 µM | 510 | 507 | 424
